In patent US10501455B2, “Inhibitors of leukotriene A4 hydrolase” (Celtaxsys, Inc., priority 2013, dated 2019):

Experiments:
[1] = target: T1, LTA4-h (Homo sapiens, UniProt P09960); experiment: Peptidase (aminopeptidase) assay; type: biochemical; conditions: for inhibition at 3 µM: read-out: Peptidase % inhibition
T1 sequence (P09960 1-611): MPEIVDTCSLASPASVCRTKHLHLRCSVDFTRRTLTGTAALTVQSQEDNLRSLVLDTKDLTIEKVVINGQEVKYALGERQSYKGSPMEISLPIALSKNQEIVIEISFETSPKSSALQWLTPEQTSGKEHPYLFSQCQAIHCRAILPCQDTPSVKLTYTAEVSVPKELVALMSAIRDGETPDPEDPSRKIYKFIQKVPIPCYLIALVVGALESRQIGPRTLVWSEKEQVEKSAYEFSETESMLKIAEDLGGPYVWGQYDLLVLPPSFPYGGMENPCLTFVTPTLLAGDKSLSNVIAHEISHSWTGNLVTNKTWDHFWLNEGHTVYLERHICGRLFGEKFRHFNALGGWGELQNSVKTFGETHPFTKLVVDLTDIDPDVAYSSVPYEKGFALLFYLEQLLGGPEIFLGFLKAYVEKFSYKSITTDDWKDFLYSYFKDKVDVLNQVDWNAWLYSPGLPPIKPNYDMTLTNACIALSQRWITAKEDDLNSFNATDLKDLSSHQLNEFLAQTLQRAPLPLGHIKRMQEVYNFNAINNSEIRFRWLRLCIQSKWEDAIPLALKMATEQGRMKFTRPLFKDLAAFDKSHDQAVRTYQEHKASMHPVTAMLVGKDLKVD
Protocol: Since LTA4-h hydrolase is grouped with the M1 family of zinc metalloproteases (see, Rudberg, P. C. et al., J. Biol. […] The whole blood and aminopeptidase assays were performed as described in Penning et al., J. Med.

[2] = target: T1, LTA4-h; experiment: Hydrolase assay (hydrolase-homogeneous time resolved fluorescence, LTB4 produced); type: biochemical
Text: The compounds of the invention can be tested for their ability to inhibit LTA4-h by various known assays and by assays described herein. For example, the compounds can be tested for their ability to inhibit LTA4-h activity by assaying the compounds in the hydrolase-homogeneous time resolved fluoroescence assay. This assay, which is a two-step assay, measures the hydrolysis of […] to LTB4 by analyzing the amount of LTB4 produced. The first step involves the enzymatic conversion of […] to LTB4 and the second step involves the quantification of the […] with a homogeneous time resolved fluoroescence assay.
The whole blood and aminopeptidase assays were performed as described in Penning et al., J. Med. Chem. 2000, 43, 721-735, and Rudberg et al., J. Biol. Chem. Vol. 279, No. 26, Issue of June 25, pp. 27376-27382, 2004, the contents of each of which are expressly incorporated by reference herein. The hydrolase assay was performed as described in U.S. Pat. No. 7,737,145, the contents of which are expressly incorporated herein.

Compound	inhibition at 3 µM ([1]; at 3 uM)	IC50 [1]	other results
COC(=O)c1ccc(CN(CC2CCN(C(=O)OC(C)(C)C)C2)c2ccc(Oc3ccc(Cl)cc3)cc2)cc1 (centres unmarked) [Compound 9]	56%	–	–
COC(=O)c1ccc(CN(CC2CCN(Cc3ccccc3)C2)c2ccc(Oc3ccc(Cl)cc3)cc2)cc1 (centres unmarked) [Compound 14]	–	200 nM	–
O=C(O)c1ccc(CN(CC2CCN(Cc3ccc(F)cc3)C2)c2ccc(Oc3ccc(Cl)cc3)cc2)cc1 (centres unmarked) [Compound 16]	–	1600 nM	IC50 [2]: 2200 nM
O=C(O)c1ccc(CN(CC2CCN(Cc3ccccc3)C2)c2ccc(Oc3ccc(Cl)cc3)cc2)cc1 (centres unmarked) [Compound 17]	–	1500 nM	–
CC(C)(C)OC(=O)N1CCC(CN(Cc2ccccc2)c2ccc(Oc3ccc(Cl)cc3)cc2)C1 (centres unmarked) [Compound 18]	0%	–	–
CC(C)(C)OC(=O)N1CCC(CN(Cc2ccc(F)cc2)c2ccc(Oc3ccc(Cl)cc3)cc2)C1 (centres unmarked) [Compound 19]	47%	–	–
COC(=O)c1ccc(CN2CCC(CN(Cc3ccc(F)cc3)c3ccc(Oc4ccc(Cl)cc4)cc3)C2)cc1 (centres unmarked) [Compound 22]	59%	–	–
COC(=O)c1ccc(CN2CCC(CN(Cc3ccccc3)c3ccc(Oc4ccc(Cl)cc4)cc3)C2)cc1 (centres unmarked) [Compound 23]	40%	–	–
O=C(O)c1ccc(CN2CCC(CN(Cc3ccc(F)cc3)c3ccc(Oc4ccc(Cl)cc4)cc3)C2)cc1 (centres unmarked) [Compound 24]	–	530 nM	IC50 [2]: 870 nM
COC(=O)c1ccc(CN(CC2CN(C(=O)OC(C)(C)C)C2)c2ccc(Oc3ccc(Cl)cc3)cc2)cc1 [Compound 26]	42%	–	–
CC(C)(C)OC(=O)CN(CC1CCN(C(=O)OC(C)(C)C)C1)c1ccc(Oc2ccc(Cl)cc2)cc1 (centres unmarked) [Compound 27]	7%	–	–
COC(=O)c1cccc(CN(CC2CN(C(=O)OC(C)(C)C)C2)c2ccc(Oc3ccc(Cl)cc3)cc2)c1 [Compound 31]	–	76 nM	inhibition at 3 µM ([2]; at 3 uM): > 5%
COC(=O)c1cccc(CN(CC2CCN(C(=O)OC(C)(C)C)C2)c2ccc(Oc3ccc(Cl)cc3)cc2)c1 (centres unmarked) [Compound 33]	22%	–	–
COC(=O)c1cccc(CN(CC2CCNC2)c2ccc(Oc3ccc(Cl)cc3)cc2)c1 (centres unmarked) [Compound 34]	–	62 nM	–
COC(=O)c1cccc(CN(CC2CNC2)c2ccc(Oc3ccc(Cl)cc3)cc2)c1 [Compound 35]	–	33 nM	–
O=C(O)c1cccc(CN(CC2CCNC2)c2ccc(Oc3ccc(Cl)cc3)cc2)c1 (centres unmarked) [Compound 36]	–	60 nM	IC50 [2]: 12 nM
O=C(O)c1cccc(CN(CC2CNC2)c2ccc(Oc3ccc(Cl)cc3)cc2)c1 [Compound 37]	–	35 nM	IC50 [2]: 62 nM
NS(=O)(=O)c1ccc(CN(CC2CCNC2)c2ccc(Oc3ccc(Cl)cc3)cc2)cc1 (centres unmarked) [Compound 38]	–	26 nM	IC50 [2]: 12 nM
CC(C)(C)OC(=O)N1CCC(CN(Cc2ccc([N+](=O)[O-])cc2)c2ccc(Oc3ccc(Cl)cc3)cc2)C1 (centres unmarked) [Compound 39]	–	–	inhibition at 3 µM [1]: 19%
COC(=O)c1coc(CN(CC2CCNC2)c2ccc(Oc3ccc(Cl)cc3)cc2)n1 (centres unmarked) [Compound 40]	–	125 nM	–
Clc1ccc(Oc2ccc(NC[C@@H]3CCCN3)cc2)cc1 [Compound 42]	–	70 nM	–
CC(C)(C)OC(=O)N1CCC[C@H]1CN(Cc1ccc(S(N)(=O)=O)cc1)c1ccc(Oc2ccc(Cl)cc2)cc1 [Compound 43]	–	–	inhibition at 1 µM ([1]; at 1 uM): 0%
NS(=O)(=O)c1ccc(CN(C[C@@H]2CCCN2)c2ccc(Oc3ccc(Cl)cc3)cc2)cc1 [Compound 44]	–	110 nM	–
